From patent publication US10746637B2, “Aldehyde scavenging agent for retrieving elements from fixed tissue” (University of Houston System, priority 2013, dated 2020)
“Also recorded” adds a separate entry of the source.

Key:
Collagen IV [1] = assay: Immunohistochemical staining of Collagen IV on formalin fixed paraffin embedded mouse brain sections after antigen retrieval with formaldehyde scavengers and enhancer; set-up: key: − being non-reactive; Immunoreactivity was scored on a scale of − to +++; Immunoreactivity was scored on a scale of − to +++; +++ being highly reactive; conditions: Table 8; 0.05% maleic acid alone or with aniline, concentrations in label; 45 minutes at 95° C.
Protocol: 12-month-old C57Bl6J mice were housed under controlled environment conditions on a condition al 12 hour light dark cycle. Following sacrifice, brains were post-fixed in 4% paraformaldehyde for 72 hours at […] and then transferred to 70% ethanol solution where they were stored at 4° C. Tissue was paraffin-processed using convention dehydration and embedding, and then sectioned at 5 μm intervals.
Tissues were deparaffinized and rehydrated. Slides were placed in a plastic Coplin jar containing either distilled water or a combination of formaldehyde scavengers in combination with an enhancer. Jars were covered with a loose fitting screw cap and heated in a pressure cooker for 45 minutes at 95° C. After heating, the Coplin jars were removed and allowed to cool and rinsed in TBST for five minutes.
Immunohistochemical staining was performed using a three-step immunostaining technique using the ABC method. Briefly, all incubations were performed as follows: 1) primary antibodies were incubated overnight at 4° C., 2) secondary antibodies were incubated for 10 minutes at room temperature, 3) streptavidin-conjugated enzyme was incubated for 10 minutes at room temperature, 4) peroxidase substrate was incubated for 1 minute.

Angiotensin I = assay: Mass spectrometry of formalin treated Angiotensin I after heating with aldehyde scavenging compounds; conditions: 5% compound, 95° C., 45 minutes
Protocol: Angiotensin I is treated with formalin at room temperature for 48 hours. […] Mass-spectrometry is used to analyze the compositions of the Angiotensin I before and after treatment by each compound. Samples of Angiotensin I before (FIG. 11A) and after (FIG. 11B) formalin treatments are used as the controls for the experiment. Peaks at m/z 1296 represent unmodified Angiotensin I. Peaks at m/z 1308 represent Angiotensin I with 1 methylene unit. Peaks at m/z 1320 represent Angiotensin I with 2 methylene units. Peaks at m/z 1338 represent Angiotensin I with 1 methylene unit and 1 hydroxymethylene group. Peaks at m/z 1350 represent Angiotensin I with 2 methylene units and 1 hydroxymethylene group.

blood vessels = assay: Antigen retrieval in paraformaldehyde fixed vascular tissue, visualization of blood vessels; conditions: paraformaldehyde fixed tissue heated in solution of compound (FIGS. 4A-4E)
Description: Paraformaldehyde fixed tissue samples are heated in solutions of compounds prepared as described in Example 1 and the blood vessels in the tissue are visualized.

ACTH (18-39) peptide = assay: Mass spectrometry of formalin treated ACTH (18-39) peptide after heating with formaldehyde scavenging agents; conditions: 5% compound, 98° C. for 45 minutes as printed with the result (method says 90° C.)
Protocol: ACTH (18-39) peptide is treated with formalin at room temperature for 48 hours (FIG. 12A). […] The composition of the formalin treated ACTH after each treatment is analyzed using mass spectrometry. The results shown in FIGS. 12A-12D are used to investigate the ability of the agents to reverse formaldehyde adducts. […] Only a small amount of ACTH with 3 methylene units is detected.

GAPDH = assay: Dot blot of GAPDH in formaldehyde treated tissues; conditions: maleic acid 1.6% to 12.8%, 95° C. for 30 minutes (FIG. 6B)
Collagen IV [2] = assay: Antigen retrieval in adult human brain vasculature, Collagen IV staining; conditions: paraformaldehyde fixed paraffin embedded adult human brain tissue (FIG. 7)
Protocol: Paraformaldehyde fixed paraffin embedded tissue from adult human brain is treated with 2,3-dimethylmaleic acid as an antigen retrieval method as described.

[3] = Autofluorescence of heated paraformaldehyde fixed paraffin embedded brain tissue; conditions: 5% ascorbic acid; 70° C., 30 minutes; 488 nm excitation; versus tissue heated only in water
Description: Images are captured at same exposure and time.

collagen IV [4] = assay: Fluorescent enhancement after antigen retrieval with addition of Triton, Collagen IV detection of blood vessels; conditions: 0.5% Triton X-100 added to 5.0% ascorbic acid solution; 70° C., 30 minutes; 488 nm excitation; versus without Triton X-100
Description: Images are captured using 488 nm excitation.

O=C(O)/C=C\C(=O)O [0.05% Maleic acid, Maleic acid]
Result (immunoreactivity, Collagen IV staining) (Collagen IV [1]): +
amount of Angiotensin I with 2 methylene units (m/z 1320) (Angiotensin I): significantly reduce
content of unmodified Angiotensin I (m/z 1296) (Angiotensin I): higher content of unmodified Angiotensin I
antigen retrieval with visualization of the blood vessels (blood vessels): successful antigen retrieval
conversion of modified ACTH (1, 2 or 3 methylene groups) into unmodified ACTH (m/z 2465) (ACTH (18-39) peptide): convert almost all the modified ACTH
detection of GAPDH (dot blot) (GAPDH): parallel increase in the detection of GAPDH

C/C(C(=O)O)=C(\C)C(=O)O [2,3-dimethylmaleic acid]
detection of blood vessels using Collagen IV (Collagen IV [2]): Blood vessels were detected

O=C1O[C@H]([C@@H](O)CO)C(O)=C1O [ascorbic acid]
tissue autofluorescence [3]: dramatically reduces visible autofluorescence; also recorded: reduction of autofluorescence
retrieval of formalin adducts of Angiotensin I (Angiotensin I): significant retrieval of formalin adducts
conversion of modified ACTH (1, 2 or 3 methylene groups) into unmodified ACTH (m/z 2465) (ACTH (18-39) peptide): convert almost all the modified ACTH

Triton X-100
staining evenness and fluorescence intensity after antigen retrieval (collagen IV [4]): significant improvement in staining evenness and intensity; also recorded: enhancement of fluorescence
